Assay results from patent US20120141384A1, “ANTIBACTERIAL CONJUGATED BORONIC ACIDS AND PHARMACEUTICAL COMPOSITIONS THEREOF” (priority 2008, published 2012).

Assays:
[1] = system: Escherichia coli (ATCC No. 8739); experiment: Antimicrobial efficacy (challenge) test, plate count; type: cell-based; settings: for No. of Surviving Microorganisms CFU/g: 25° C., initial contamination 2.8 × 10^5 CFU/g; for antimicrobial effect in words: following one day of exposure
Experimental: (§1) 2-FBP was obtained from Sigma Aldrich. Test Procedure: The test consisted of challenging the test solutions with specified microorganisms, storing the inoculated preparations at a prescribed temperature, removing the inoculated samples at specified intervals of time and counting the number of viable organisms in the withdrawn samples using a plate count procedure. The technical details were as follows: • The test was conducted in 20 g samples. • Each sample was separately inoculated by one of the test organisms. • The inoculated containers were incubated at 25° C. together with an uninoculated sample. • The inoculated container with P. acnes was incubated under anaerobic conditions at the same temperature. • The culture media for P. acnes was Brain Heart Infusion Agar instead of Tryptic Soy Agar. Formulations were challenged by introducing the following microorganisms: Escherichia coli (ATCC No. 8739) Counting of microorganisms in the inoculated samples was performed 1, 2 and 7 days following inoculation. The number of colony-forming units (cfu/g) determined at each incubation time point was compared to the number of cfu/g measured in non-inoculated control samples of FPB solutions. Antimicrobial effectiveness results, expressed as colony forming units of surviving microorganisms in the FPB solutions (cfu/g), are detailed in Tables 1-3.

[2] = system: Staphylococcus aureus (ATCC No. 6538); experiment: as above; type: cell-based; settings: for No. of Surviving Microorganisms CFU/g: 25° C., initial contamination 5.2 × 10^5 CFU/g; for antimicrobial effect in words: following one day of exposure
Experimental: as §1, with “The purpose of this study was to assess the antimicrobial efficacy of 2-Formylphenyl boronic acid (FPB) aqueous solutions, in different concentrations of 10 mM, 20 mM and 40 mM. 2-FBP” for “2-FBP”, “Staphylococcus aureus” for “Escherichia coli”, “6538)” for “8739)”

[3] = system: Pseudomonas aeruginosa (ATCC No. 9027); experiment: as above; type: cell-based; settings: for No. of Surviving Microorganisms CFU/g: 25° C., initial contamination 4.3 × 10^6 CFU/g; for antimicrobial effect in words: following one day of exposure
Experimental: as §1, with “Pseudomonas aeruginosa” for “Escherichia coli”, “9027)” for “8739)”

[4] = system: Propionbacterium acnes ATCC 11827; experiment: Antimicrobial efficacy (challenge) test, plate count, anaerobic incubation; type: cell-based; settings: for No. of Surviving Microorganisms CFU/g: 25° C. anaerobic, initial contamination 4.1 × 10^5 CFU/g; for antimicrobial effect in words: following one day of exposure
Experimental: as §1, with “The purpose of this study was to assess the antimicrobial efficacy of 2-Formylphenyl boronic acid (FPB) aqueous solutions, in different concentrations of 10 mM, 20 mM and 40 mM. 2-FBP” for “2-FBP”, “Propionbacterium acnes ATCC 11827” for “Escherichia coli (ATCC No. 8739)”

[5] = Stability of 2-FBA under formulation conditions, amount by chromatography; type: physicochemical
Experimental: 2-Formylphenyl Boronic Acid (2-FBA) was exposed to various formulation conditions, in order to assess its optimized formulation stability properties. The amount of 2-FBA was assessed prior to the experiment and following the exposure to the different conditions by chromatography. The conditions are detailed in the following Table.

[6] = Solubility and compatibility of FPB in the carrier; type: physicochemical; settings: for solubility in the carrier: 20 mM and 40 mM
Text: The active agent FPB is soluble in the carrier.

[7] = system: Staphylococcus aureus (ATCC No. 6538); experiment: Antimicrobial efficacy (challenge) test, plate count; type: cell-based; settings: 30 mM FPB aqueous solution, 25° C., initial contamination 5.2 × 10^5 CFU/g
[8] = system: Propionbacterium acnes ATCC 11827; experiment: Antimicrobial efficacy (challenge) test, plate count, anaerobic incubation; type: cell-based; settings: 30 mM FPB aqueous solution, 25° C. anaerobic, initial contamination 4.1 × 10^5 CFU/g
[9] = 10 mM FPB aqueous solution, 1 week
[10] = 10 mM FPB aqueous solution, 1 days
[11] = 10 mM FPB aqueous solution, 2 days
[12] = 20 mM FPB aqueous solution, 1 week
[13] = 20 mM FPB aqueous solution, 1 days
[14] = 20 mM FPB aqueous solution, 2 days
[15] = Solution 1 (10 mM FPB), within two days of exposure
[16] = solutions, concentrations of 10 mM, 20 mM and 40 mM

O=Cc1ccccc1B(O)O [FPB, 2-Formylphenyl boronic acid]
6.4 × 10^4 CFU/g: No. of Surviving Microorganisms CFU/g [1, 10]
7.6 × 10^3 CFU/g: No. of Surviving Microorganisms CFU/g [1, 13]
completely destroyed: antimicrobial effect in words ([4]; Solution 1 (10 mM FPB))
soluble: solubility in the carrier ([6]; emulsion carrier (Example 2)) | solubility in the carrier ([6]; gel carrier (Example 3))
4.5 × 10^4 CFU/g: No. of Surviving Microorganisms CFU/g [2, 10]
completely eradicated: antimicrobial effect in words ([1]; Solution 2 (20 mM FBA)) | antimicrobial effect in words ([1]; Solution 3 (40 mM FBA)) | antimicrobial effect in words ([2]; Solution 2 (20 mM FBA)) | antimicrobial effect in words ([2]; Solution 3 (40 mM FBA)) | antimicrobial effect in words ([3]; Solution 2 (20 mM FBA)) | antimicrobial effect in words ([3]; Solution 3 (40 mM FBA)) | antimicrobial effect in words ([4]; Solution 2 (20 mM FBA)) | antimicrobial effect in words ([4]; Solution 3 (40 mM FBA))
5.0 × 10^1 CFU/g: No. of Surviving Microorganisms CFU/g [3, 11]
<10 CFU/g: No. of Surviving Microorganisms CFU/g [1, 9] | No. of Surviving Microorganisms CFU/g [1, 11] | No. of Surviving Microorganisms CFU/g [1, 12] | No. of Surviving Microorganisms CFU/g [1, 14] | No. of Surviving Microorganisms CFU/g ([1]; 30 mM FPB aqueous solution, 1 week) | No. of Surviving Microorganisms CFU/g ([1]; 30 mM FPB aqueous solution, 1 days) | No. of Surviving Microorganisms CFU/g ([1]; 30 mM FPB aqueous solution, 2 days) | No. of Surviving Microorganisms CFU/g [2, 9] | No. of Surviving Microorganisms CFU/g [2, 12] | No. of Surviving Microorganisms CFU/g [2, 13] | No. of Surviving Microorganisms CFU/g [2, 14] | No. of Surviving Microorganisms CFU/g [3, 9] | No. of Surviving Microorganisms CFU/g [3, 12] | No. of Surviving Microorganisms CFU/g [3, 13] | No. of Surviving Microorganisms CFU/g [3, 14] | No. of Surviving Microorganisms CFU/g [4, 9] | No. of Surviving Microorganisms CFU/g [4, 10] | No. of Surviving Microorganisms CFU/g [4, 11] | No. of Surviving Microorganisms CFU/g [4, 12] | No. of Surviving Microorganisms CFU/g [4, 13] | No. of Surviving Microorganisms CFU/g [4, 14] | No. of Surviving Microorganisms CFU/g ([7]; 1 week) | No. of Surviving Microorganisms CFU/g ([7]; 1 days) | No. of Surviving Microorganisms CFU/g ([7]; 2 days) | No. of Surviving Microorganisms CFU/g ([8]; 1 week) | No. of Surviving Microorganisms CFU/g ([8]; 1 days) | No. of Surviving Microorganisms CFU/g ([8]; 2 days)
2.0 log: log reduction of the count from the initial load [1, 15] | log reduction of the count from the initial load [2, 15] | log reduction of the count from the initial load [3, 15]
4.3 × 10^4 CFU/g: No. of Surviving Microorganisms CFU/g [3, 10]
relatively stable: stability in words ([5]; UV light) | stability in words ([5]; heat) | stability in words ([5]; in the presence of NaOH (0.1 N))
effective: effectiveness (conclusion) [1, 16] | effectiveness (conclusion) [2, 16] | effectiveness (conclusion) [3, 16] | effectiveness (conclusion) [4, 16]
does not interfere: interference with foam formation ([6]; emulsion carrier (Example 2)) | interference with the formation of an emulsion ([6]; emulsion carrier (Example 2)) | interference with foam formation ([6]; gel carrier (Example 3))
underwent degradation: stability in words ([5]; in the presence of H2O2) | stability in words ([5]; in the presence of HCl (0.1 N))
5.4 × 10^2 CFU/g: No. of Surviving Microorganisms CFU/g [2, 11]
